Data taken from patent publication US7829754B2, “Method of cleaning heavy metals-containing soil” (Chubu Electric Power Co., Inc., priority 2004, dated 2010).
Like-named read-outs stand apart in the source and are kept apart here.

Legend:
[1] = assay type: physicochemical; details: chelating agent 100 mmol·dm^−3, pH 5.8; Soil A; shaken at 20° C. for 6 hours; FIG. 2
Description: <Experiment 1. Test of Comparing Lead Dissolving Out Ability of Chelating Agent>
In order to study a kind of a chelating agent to be added to a contaminated soil, the lead dissolving out abilities of 26 types of chelating agents (chelate reagents) were compared (FIG. 2).
2) Chelating agent: Each chelating agent of 100 mmol·dm^−3 and pH 5.8 was prepared.
3) Five grams of 1) the subject soil and 50 ml of 2) the chelating agent were put into to a 100 ml vessel, and shaken (200 times/min) at 20° C. for 6 hours. Repeated cycle was 3.
4) For comparison, a contrast section was prepared, in which desalted water was added instead of the chelating agent in the 3).
5) After shaking, the sample after filtration was centrifuged at 15000 rpm for 5 minutes, and the supernatant liquid was further centrifuged again under the same condition.
6) From the separated supernatant liquid, a lead concentration was measured with an inductively coupled high frequency plasma spectrometry (ICP) device.

Fagopyrum esculentum [2] = test: Fagopyrum esculentum growth situation after addition of chelating agent
Description: 3) The soil B (3 kg) and the contrast section soil (4.3 kg) which had been passed through a sieve (2 mm) were mixed with urea (N: 69 mg/kg soil), calcium superphosphate (P: 75 mg/kg soil), potassium chloride (K: 72 mg/kg soil), and magnesia lime (Mg: 67 mg/kg soil), and sufficiently stirred. 4) The test soil was filled into a Wagnel pot (1/5000a), and a plant was seeded (3 pits/pot, 3 grains/pit). 5) Four to five days after germination, the plant was thinned out to 3 individuals/pot. 6) Cultivation in a gross chamber (Environmental Condition) Temperature: 25° C.×12 h (8:00-20:00), 20° C.×12 h (20:00-8:00) Humidity: 60% Illumination: light condition (8:00-20:00), dark condition (20:00-8:00) Illuminance: 98001×, 180μ mmol˜m^−2·s^−1 7) Aspersion was performed at 100 ml/pot every day. 8) During a test term, a position of a pot was changed four times. 9) Individuals which were about to fall were induced by a support post. 10) One week before harvesting, a chelating agent at each concentration was added to the soil B. An addition amount was 300 ml/pot, and the chelating agent was carefully added to a surface of the soil so that the chelating agent was not contacted with the plant. On the day before addition of the chelating agent and on the day of addition, aspersion was not performed. […] 12) Repeated cycles in all sections were 3 (3 pots/test section).

Fagopyrum esculentum [3] = details: for Terrestrial lead accumulated amount, fold of EDTA-2Na at the same concentration / Terrestrial lead accumulated amount, fold of contrast section / Leaf dry weight / Stem dry weight / Stem lead concentration / Terrestrial dry weight / Terrestrial part lead accumulation amount / Terrestrial part lead concentration: soil B; for Leaf lead concentration: soil B (lead 13032 mg/kg), added one week before harvesting
Description: A lead concentration in a soil or a plant body was analyzed using ICP-AES (inductively coupled plasma-atomic emission spectrometry) regarding a sample obtained by adding nitric acid and degrading this with a microwave.
A cultivating experiment was conducted as follows: in which Fagopyrum esculentum and Brassica juncca were cultivated in a lead-containing soil filled in a Wagnel pot, a chelating agent was further added to the soil, and a difference in a lead accumulating amount depending on the cultivating condition was examined.
In addition, considering influence on plants and environment such as a salt concentration damage, 1, 5, 10 and 20 mmol kg^−1 soil of chemical reagents were adopted as an addition concentration, and 300 ml/pot (soil 3 kg) was provided as an addition amount.
1) Test plant: Fagopyrum esculentum, trade name (Milkyway), Brassica juncea
2) Test soil: Soil B (sampled from an old firing range site, soil lead concentration 13032 mg/kg), contrast sample (mountain sand in Gifu Prefecture of Japan, soil lead concentration 21 mg/kg)

[4] = four days after addition, 1 mmol/kg soil
[5] = four days after addition, 5 mmol/kg soil
[6] = four days after addition, 10 mmol/kg soil
[7] = four days after addition, 20 mmol/kg soil
[8] = two days after addition, 20 mmol/kg soil
[9] = chelating agent 10 mmol/kg soil
[10] = chelating agent 20 mmol/kg soil

CC(C(=O)[O-])N(CC(=O)[O-])CC(=O)[O-].[Na+].[Na+].[Na+] (centres unmarked) [MGDA · 3Na, trisodium methylglycine diacetate]
lead dissolving out ability [1]: high lead dissolving out ability
Discoloration of leaf (number of individuals for which symptom was observed) (Fagopyrum esculentum [2]; [4]): 3
Leaf drop (number of individuals for which symptom was observed) (Fagopyrum esculentum [2]; [4]): 1
Wilting of leaf (number of individuals for which symptom was observed) (Fagopyrum esculentum [2]; [4]): 1
Discoloration of leaf (number of individuals for which symptom was observed) (Fagopyrum esculentum [2]; [5]): 3
Wilting of leaf (number of individuals for which symptom was observed) (Fagopyrum esculentum [2]; [5]): 1
Discoloration of flower (number of individuals for which symptom was observed) (Fagopyrum esculentum [2]; [6]): 5
Discoloration of leaf (number of individuals for which symptom was observed) (Fagopyrum esculentum [2]; [6]): 2
Leaf drop (number of individuals for which symptom was observed) (Fagopyrum esculentum [2]; [6]): 2
Wilting of leaf (number of individuals for which symptom was observed) (Fagopyrum esculentum [2]; [6]): 6
Discoloration of flower (number of individuals for which symptom was observed) (Fagopyrum esculentum [2]; [7]): 9
Discoloration of leaf (number of individuals for which symptom was observed) (Fagopyrum esculentum [2]; [7]): 9
Leaf drop (number of individuals for which symptom was observed) (Fagopyrum esculentum [2]; [7]): 7
Wilting of leaf (number of individuals for which symptom was observed) (Fagopyrum esculentum [2]; [7]): 9
yellow leaves, spotting and discoloration of leaves, and discoloration of a flower (Fagopyrum esculentum [2]; [7]): confirmed in all individuals
leaf drop (Fagopyrum esculentum [2]; four days after addition, 20 mmol/kg soil, in words): observed in almost all individuals
discoloration of leaves (Fagopyrum esculentum [2]; [8]): discoloration of leaves was observed
leaf drop (Fagopyrum esculentum [2]; [8]): confirmed partially
Terrestrial lead accumulated amount, fold of EDTA-2Na at the same concentration (Fagopyrum esculentum [3]; 10 mmol/kg soil): 1.6 fold
Terrestrial lead accumulated amount, fold of contrast section (Fagopyrum esculentum [3]; 10 mmol/kg soil): 3.4 fold
Terrestrial lead accumulated amount, fold of EDTA-2Na at the same concentration (Fagopyrum esculentum [3]; 20 mmol/kg soil): 1.3 fold
Terrestrial lead accumulated amount, fold of contrast section (Fagopyrum esculentum [3]; 20 mmol/kg soil): 3.7 fold
addition effect on lead concentration in stems (Fagopyrum esculentum [3]; 10, 20 mmol/kg soil, contrast section 2043 mg/kg): high addition effect
addition effect on lead concentration in leaves (Fagopyrum esculentum [3]; 10, 20 mmol/kg soil, contrast section 7971 mg/kg): high addition effect
Leaf dry weight (Fagopyrum esculentum [3]; chelating agent 1 mmol/kg soil): 0.9422 g/plant
Stem dry weight (Fagopyrum esculentum [3]; chelating agent 1 mmol/kg soil): 1.9496 g/plant
Stem lead concentration (Fagopyrum esculentum [3]; chelating agent 1 mmol/kg soil): 2310 mg/kg
Terrestrial dry weight (Fagopyrum esculentum [3]; chelating agent 1 mmol/kg soil): 2.8918 g/plant
Terrestrial part lead accumulation amount (Fagopyrum esculentum [3]; chelating agent 1 mmol/kg soil): 0.0130 g/plant
Terrestrial part lead concentration (Fagopyrum esculentum [3]; chelating agent 1 mmol/kg soil): 4484 mg/kg
Leaf lead concentration (Fagopyrum esculentum [3]; chelating agent 1 mmol/kg soil): 8981 mg/kg
Leaf dry weight (Fagopyrum esculentum [3]; chelating agent 5 mmol/kg soil): 0.8863 g/plant
Stem dry weight (Fagopyrum esculentum [3]; chelating agent 5 mmol/kg soil): 1.8543 g/plant
Stem lead concentration (Fagopyrum esculentum [3]; chelating agent 5 mmol/kg soil): 2384 mg/kg
Terrestrial dry weight (Fagopyrum esculentum [3]; chelating agent 5 mmol/kg soil): 2.7406 g/plant
Terrestrial part lead accumulation amount (Fagopyrum esculentum [3]; chelating agent 5 mmol/kg soil): 0.0156 g/plant
Terrestrial part lead concentration (Fagopyrum esculentum [3]; chelating agent 5 mmol/kg soil): 5690 mg/kg
Leaf lead concentration (Fagopyrum esculentum [3]; chelating agent 5 mmol/kg soil): 12607 mg/kg
Leaf dry weight (Fagopyrum esculentum [3]; [9]): 0.7343 g/plant
Stem dry weight (Fagopyrum esculentum [3]; [9]): 1.5023 g/plant
Stem lead concentration (Fagopyrum esculentum [3]; [9]): 10098 mg/kg
Terrestrial dry weight (Fagopyrum esculentum [3]; [9]): 2.2366 g/plant
Terrestrial part lead accumulation amount (Fagopyrum esculentum [3]; [9]): 0.0399 g/plant
Terrestrial part lead concentration (Fagopyrum esculentum [3]; [9]): 17858 mg/kg
Leaf lead concentration (Fagopyrum esculentum [3]; [9]): 33735 mg/kg
Leaf dry weight (Fagopyrum esculentum [3]; [10]): 0.5582 g/plant
Stem dry weight (Fagopyrum esculentum [3]; [10]): 1.3716 g/plant
Stem lead concentration (Fagopyrum esculentum [3]; [10]): 16437 mg/kg
Terrestrial dry weight (Fagopyrum esculentum [3]; [10]): 1.9298 g/plant
Terrestrial part lead accumulation amount (Fagopyrum esculentum [3]; [10]): 0.0441 g/plant
Terrestrial part lead concentration (Fagopyrum esculentum [3]; [10]): 22848 mg/kg
Leaf lead concentration (Fagopyrum esculentum [3]; [10]): 38601 mg/kg
Terrestrial part lead accumulation amount (Fagopyrum esculentum [3]; per unit area, calculated, chelating agent 1 mmol/kg soil): 1.95 g/m^2
Terrestrial part lead accumulation amount (Fagopyrum esculentum [3]; per unit area, calculated, chelating agent 5 mmol/kg soil): 2.34 g/m^2
Terrestrial part lead accumulation amount (Fagopyrum esculentum [3]; per unit area, calculated, chelating agent 10 mmol/kg soil): 5.99 g/m^2
Terrestrial part lead accumulation amount (Fagopyrum esculentum [3]; per unit area, calculated, chelating agent 20 mmol/kg soil): 6.62 g/m^2
